Results as given in patent US11427549B2, “Pyrimidinyloxy benzo-fused compounds as herbicides” (FMC Corporation, priority 2017, dated 2022).

Legend:
Assay type in all cases: in vivo
[1] = tested on: foxtail, giant (giant foxtail, Setaria faberii); assay: Test A postemergence, foxtail, giant; settings: Setaria faberi, post-emergence, 240 h, 0 to 100 scale (0 no effect, 100 complete control), read-out: Plant response rating, Foxtail, Giant; for pest or weed control at 31 g/ha: 31 g ai/ha; for pest or weed control at 125 g/ha: 125 g ai/ha
Description: (§1) Seeds of plant species selected from barnyardgrass (Echinochloa crus-galli), kochia (Kochia scoparia), ragweed (common ragweed, Ambrosia elatior), ryegrass, Italian (Italian ryegrass, Lolium multiflorum), foxtail, giant (giant foxtail, Setaria faberii), foxtail, green (green foxtail, Setaria viridis) and pigweed (Amaranthus retroflexus) were planted into a blend of loam soil and sand and treated preemergence with a directed soil spray using test chemicals formulated in a non-phytotoxic solvent mixture which included a surfactant.
(§2) At the same time, plants selected from these weed species and also wheat (Triticum aestivum), corn (Zea mays), blackgrass (Alopecurus myosuroides), and galium (catchweed bedstraw, Galium aparine) were planted in pots containing the same blend of loam soil and sand and treated with postemergence applications of test chemicals formulated in the same manner. Plants ranged in height from 2 to 10 cm and were in the one- to two-leaf stage for the postemergence treatment. Treated plants and untreated controls were maintained in a greenhouse for approximately 10 days, after which time all treated plants were compared to untreated controls and visually evaluated for injury. […] A dash (-) response means no test result.

[2] = tested on: foxtail, green (green foxtail, Setaria viridis); assay: Test A preemergence, foxtail, green; settings: Setaria, pre-emergence, 240 h, 0 to 100 scale (0 no effect, 100 complete control), read-out: Plant response rating, Foxtail, Green; for pest or weed control at 31 g/ha: 31 g ai/ha; for pest or weed control at 125 g/ha: 125 g ai/ha; for pest or weed control at 500 g/ha: 500 g ai/ha
Description: as §1, §2

[3] = tested on: foxtail, green (green foxtail, Setaria viridis); assay: Test A postemergence, foxtail, green; settings: Setaria, post-emergence, 240 h, 0 to 100 scale (0 no effect, 100 complete control), read-out: Plant response rating, Foxtail, Green; for pest or weed control at 31 g/ha: 31 g ai/ha; for pest or weed control at 125 g/ha: 125 g ai/ha; for pest or weed control at 500 g/ha: 500 g ai/ha
Description: as §1, §2

FC(F)(F)CCC1COc2cccc(Oc3ncc(Cl)cn3)c21 (stereo not drawn) [Compound 36, 5-Chloro-2-[[2,3-dihydro-3-(3,3,3-trifluoropropyl)-4-benzofuranyl]oxy]pyrimidine]
pest or weed control at 31 g/ha [1]: 0% | pest or weed control at 125 g/ha [1]: 20%

O=C1CC(CCC(F)(F)F)c2c(Oc3ncc(Cl)cn3)cccc21 (stereo not drawn) [Compound 11, 4-[(5-Chloro-2-pyrimidinyl)oxy]-2,3-dihydro-3-(3,3,3-trifluoropropyl)-1H-inden-1-one]
pest or weed control at 31 g/ha [2]: 10% | pest or weed control at 125 g/ha [2]: 70% | pest or weed control at 31 g/ha [3]: 0% | pest or weed control at 125 g/ha [3]: 10%

FC(F)(F)CCC1OCCc2cccc(Oc3ncc(Cl)cn3)c21 (stereo not drawn) [Compound 32, 5-Chloro-2-[[3,4-dihydro-1-(3,3,3-trifluoropropyl)-1H-2-benzopyran-8-yl]oxy]pyrimidine]
pest or weed control at 31 g/ha [1]: 0% | pest or weed control at 125 g/ha [1]: 20%

O=C1c2cccc(Oc3ncc(Cl)cn3)c2C1CCCC(F)(F)F (stereo not drawn) [Compound 22, 2-[(5-Chloro-2-pyrimidinyl)oxy]-8-(4,4,4-trifluorobutyl)bicyclo[4.2.0]octa-1,3,5-trien-7-one]
pest or weed control at 31 g/ha [1]: 0% | pest or weed control at 125 g/ha [1]: 40%

O=C1OCc2cccc(Oc3ncc(Cl)cn3)c2C1CCCC(F)(F)F (stereo not drawn) [Compound 26, 5-[(5-Chloro-2-pyrimidinyl)oxy]-1,4-dihydro-4-(4,4,4-trifluorobutyl)-3H-2-benzopyran-3-one]
pest or weed control at 31 g/ha [1]: 0% | pest or weed control at 125 g/ha [1]: 20%

O=C1O[C@@H](CCCC(F)(F)F)c2c(Oc3ncc(Cl)cn3)cccc21 [Compound 2, (3S)-4-[(5-Chloro-2-pyrimidinyl)oxy]-3-(4,4,4-trifluorobutyl)-1-(3H)-isobenzofuranone]
pest or weed control at 31 g/ha [2]: 0% | pest or weed control at 125 g/ha [2]: 30% | pest or weed control at 31 g/ha [3]: 0% | pest or weed control at 125 g/ha [3]: 10%

FC(F)(F)CC[C@H]1OCc2cccc(Oc3ncc(Cl)cn3)c21 [Compound 20, 5-Chloro-2-[[(3R)-1,3-dihydro-3-(3,3,3-trifluoropropyl)-4-isobenzofuranyl]oxy]-pyrimidine]
pest or weed control at 31 g/ha [1]: 50% | pest or weed control at 125 g/ha [1]: 90%

O=C1O[C@H](CCCC(F)(F)F)c2c(Oc3ncc(Cl)cn3)cccc21 [Compound 3, (3R)-4-[(5-Chloro-2-pyrimidinyl)oxy]-3-(4,4,4-trifluorobutyl)-1-(3H)-isobenzofuranone]
pest or weed control at 31 g/ha [2]: 100% | pest or weed control at 125 g/ha [2]: 100% | pest or weed control at 31 g/ha [3]: 40% | pest or weed control at 125 g/ha [3]: 100%

O=C1CCC(CCCC(F)(F)F)c2c(Oc3ncc(Cl)cn3)cccc21 (stereo not drawn) [Compound 30, 5-[(5-Chloro-2-pyrimidinyl)oxy]-3,4-dihydro-4-(4,4,4-trifluorobutyl)-1(2H)-naphthalenone]
pest or weed control at 31 g/ha [1]: 0% | pest or weed control at 125 g/ha [1]: 40%

FC(F)(F)CCCC1OCCc2cccc(Oc3ncc(Cl)cn3)c21 (stereo not drawn) [Compound 27, 5-Chloro-2-[[3,4-dihydro-1-(4,4,4-trifluorobutyl)-1H-2-benzopyran-8-yl]oxy]pyrimidine]
pest or weed control at 31 g/ha [1]: 10% | pest or weed control at 125 g/ha [1]: 30%

OC1(CCC(F)(F)F)CCc2cccc(Oc3ncc(Cl)cn3)c21 (stereo not drawn) [Compound 14, 7-[(5-Chloro-2-pyrimidinyl)oxy]-2,3-dihydro-1-(3,3,3-trifluoropropyl)-1H-inden-1-ol]
pest or weed control at 125 g/ha [2]: 40% | pest or weed control at 500 g/ha [2]: 100% | pest or weed control at 125 g/ha [3]: 0% | pest or weed control at 500 g/ha [3]: 50%

O=C1OCc2cccc(Oc3ncc(Cl)cn3)c2C1CCC(F)(F)F (stereo not drawn) [Compound 29, 5-[(5-Chloro-2-pyrimidinyl)oxy]-1,4-dihydro-4-(3,3,3-trifluoropropyl)-3H-2-benzopyran-3-one]
pest or weed control at 31 g/ha [1]: 0% | pest or weed control at 125 g/ha [1]: 10%

O=C1NC(CCCC(F)(F)F)c2c(Oc3ncc(Cl)cn3)cccc21 (stereo not drawn) [Compound 13, 4-[(5-Chloro-2-pyrimidinyl)oxy]-2,3-dihydro-3-(4,4,4-trifluorobutyl)-1H-isoindol-1-one]
pest or weed control at 31 g/ha [2]: 0% | pest or weed control at 125 g/ha [2]: 0% | pest or weed control at 31 g/ha [3]: 0% | pest or weed control at 125 g/ha [3]: 0%

FC(F)(F)CCCC1CCc2cccc(Oc3ncc(Cl)cn3)c21 (stereo not drawn) [Compound 9, 5-Chloro-2-[[2,3-dihydro-3-(4,4,4-trifluorobutyl)-1H-inden-4-yl]oxy]pyrimidine]
pest or weed control at 31 g/ha [2]: 70% | pest or weed control at 125 g/ha [2]: 100% | pest or weed control at 31 g/ha [3]: 20% | pest or weed control at 125 g/ha [3]: 60%

O=C1OC(CCCC(F)(F)F)c2c(Oc3ncc(Cl)cn3)cccc21 (stereo not drawn) [Compound 1, 4-[(5-Chloro-2-pyrimidinyl)oxy]-3-(4,4,4-trifluorobutyl)-1(3H)-isobenzofuranone]
pest or weed control at 125 g/ha [2]: 100% | pest or weed control at 500 g/ha [2]: 100% | pest or weed control at 125 g/ha [3]: 90% | pest or weed control at 500 g/ha [3]: 100%

O=C1OCC(CCC(F)(F)F)c2c(Oc3ncc(Cl)cn3)cccc21 (stereo not drawn) [Compound 25, 5-[(5-Chloro-2-pyrimidinyl)oxy]-3,4-dihydro-4-(3,3,3-trifluoropropyl)-1H-2-benzopyran-1-one]
pest or weed control at 31 g/ha [1]: 0% | pest or weed control at 125 g/ha [1]: 30%

FC(F)(F)CCCC1OCc2cccc(Oc3ncc(Cl)cn3)c21 (stereo not drawn) [Compound 7, 5-chloro-2-[[1,3-dihydro-3-(4,4,4-trifluorobutyl)-4-isobenzofuranyl]oxy]-pyrimidine]
pest or weed control at 31 g/ha [2]: 80% | pest or weed control at 125 g/ha [2]: 100% | pest or weed control at 31 g/ha [3]: 30% | pest or weed control at 125 g/ha [3]: 90%

FC(F)(F)CC[C@@H]1OCc2cccc(Oc3ncc(Cl)cn3)c21 [Compound 21, 5-Chloro-2-[[(3S)-1,3-dihydro-3-(3,3,3-trifluoropropyl)-4-isobenzofuranyl]oxy]-pyrimidine]
pest or weed control at 31 g/ha [1]: 0% | pest or weed control at 125 g/ha [1]: 20%

O=C1c2cccc(Oc3ncc(Cl)cn3)c2C1CCC(F)(F)F (stereo not drawn) [Compound 24, 2-[(5-Chloro-2-pyrimidinyl)oxy]-8-(3,3,3-trifluoropropyl)bicyclo[4.2.0]octa-1,3,5-trien-7-one]
pest or weed control at 31 g/ha [1]: 0% | pest or weed control at 125 g/ha [1]: 50%

O=C1OCc2cccc(Oc3ncc(Cl)cn3)c2C1CCCCC(F)(F)F (stereo not drawn) [Compound 34, 5-[(5-Chloro-2-pyrimidinyl)oxy]-1,4-dihydro-4-(5,5,5-trifluoropentyl)-3H-2-benzopyran-3-one]
pest or weed control at 31 g/ha [1]: 0% | pest or weed control at 125 g/ha [1]: 20%

FC(F)(F)CCC1OCc2cccc(Oc3ncc(Cl)cn3)c21 (stereo not drawn) [Compound 8, 5-Chloro-2-[[1,3-dihydro-3-(3,3,3-trifluoropropyl)-4-isobenzofuranyl]oxy]pyrimidine]
pest or weed control at 31 g/ha [2]: 80% | pest or weed control at 125 g/ha [2]: 100% | pest or weed control at 31 g/ha [3]: 20% | pest or weed control at 125 g/ha [3]: 70%

O=C1OC(CCC(F)(F)F)c2c(Oc3ncc(Cl)cn3)cccc21 (stereo not drawn) [Compound 4, 4-[(5-Chloro-2-pyrimidinyl)oxy]-3-(3,3,3-trifluoropropyl)-1(3H)-isobenzofuranone]
pest or weed control at 31 g/ha [2]: 100% | pest or weed control at 125 g/ha [2]: 100% | pest or weed control at 31 g/ha [3]: 30% | pest or weed control at 125 g/ha [3]: 90%

OC1CC(CCCC(F)(F)F)c2c(Oc3ncc(Cl)cn3)cccc21 (stereo not drawn) [Compound 10, 4-[(5-Chloro-2-pyrimidinyl)oxy]-2,3-dihydro-3-(4,4,4-trifluorobutyl)-1H-inden-1-ol]
pest or weed control at 31 g/ha [2]: 60% | pest or weed control at 125 g/ha [2]: 90% | pest or weed control at 31 g/ha [3]: 10% | pest or weed control at 125 g/ha [3]: 50%

FC(F)(F)CCCC1COc2cccc(Oc3ncc(Cl)cn3)c21 (stereo not drawn) [Compound 33, 5-Chloro-2-[[2,3-dihydro-3-(4,4,4-trifluorobutyl)-4-benzofuranyl]oxy]pyrimidine]
pest or weed control at 31 g/ha [1]: 20% | pest or weed control at 125 g/ha [1]: 20%

O=C1COC(CCCC(F)(F)F)c2c(Oc3ncc(Cl)cn3)cccc21 (stereo not drawn) [Compound 5, 8-[(5-Chloro-2-pyrimidinyl)oxy]-1-(4,4,4-trifluorobutyl)-1H-2-benzopyran-4(3H)-one]
pest or weed control at 31 g/ha [2]: 0% | pest or weed control at 125 g/ha [2]: 0% | pest or weed control at 31 g/ha [3]: 10% | pest or weed control at 125 g/ha [3]: 10%

CN1C(=O)c2cccc(Oc3ncc(Cl)cn3)c2C1CCCC(F)(F)F (stereo not drawn) [Compound 12, 4-[(5-Chloro-2-pyrimidinyl)oxy]-2,3-dihydro-2-methyl-3-(4,4,4-trifluorobutyl)-1H-isoindol-1-one]
pest or weed control at 31 g/ha [2]: 0% | pest or weed control at 125 g/ha [2]: 0% | pest or weed control at 31 g/ha [3]: 0% | pest or weed control at 125 g/ha [3]: 10%
